Results: US10570184B2, “GLP-1/glucagon receptor co-agonists for medical use” (Novo Nordisk A/S, priority 2014, dated 2020)
Starred links: 1 amine or outer side, 2 acyl side, 3 side chain; linkers in the order of their positions; H or OH if unused. Non-standard residues stand in square brackets, D forms with d. Residues, ends and D or L forms follow the SMILES beside them. Groups on a side chain read outwards from the residue. *: point of attachment. C18 diacid = O=C(O)CCCCCCCCCCCCCCCCC(=O)*; γGlu = O=C(O)[C@H](CCC(=O)[*:2])N[*:1]; Ac4c = NC1(C(=O)O)CCC1; AEEA = NCCOCCOCC(=O)O; Aib = CC(C)(N)C(=O)O

Molecular target: T1, human GLP-1 receptor (Homo sapiens, UniProt P43220)
T1 construct: expressed in transfected cells; host or cells: membranes of BHK cells (parent BHKTS13), clone FCW467-12A
T1 sequence (P43220 24-463): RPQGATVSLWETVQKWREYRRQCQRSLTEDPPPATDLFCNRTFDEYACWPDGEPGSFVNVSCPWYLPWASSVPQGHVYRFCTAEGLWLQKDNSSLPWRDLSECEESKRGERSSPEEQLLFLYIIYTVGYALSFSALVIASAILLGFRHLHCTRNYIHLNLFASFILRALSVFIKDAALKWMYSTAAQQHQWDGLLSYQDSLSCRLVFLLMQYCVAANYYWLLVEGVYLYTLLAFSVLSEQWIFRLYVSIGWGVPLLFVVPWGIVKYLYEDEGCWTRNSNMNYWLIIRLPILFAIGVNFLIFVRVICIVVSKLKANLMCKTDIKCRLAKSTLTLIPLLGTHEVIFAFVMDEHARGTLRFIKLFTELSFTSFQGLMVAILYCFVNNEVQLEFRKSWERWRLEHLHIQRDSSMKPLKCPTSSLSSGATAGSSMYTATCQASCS
Assay: Assay (II)(a) GLP-1 receptor binding, 125I-GLP-1 displacement SPA on BHK membranes
Conditions: without presence of serum albumin; read-out: GLP-1R IC50 (nM) [Assay (II)(a)]
In short: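 Membranes from BHK cells (clone FCW467-12A) stably expressing human GLP-1R were incubated with serially diluted compounds (8×10EE-13 to 8×10EE-7 M before addition) and [125I]-GLP-1-(7-36)NH2 with WGA SPA beads, 2 h at 30° C, pH 7.4. IC50 taken from displacement by non-linear regression. Run at ≤0.001% or 2.0% final serum albumin.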

Row | Structure (SMILES) | IC50
1 | CC[C@H](C)[C@H](NC(=O)[C@H](CC(C)C)NC(=O)[C@H](Cc1c[nH]c2ccccc12)NC(=O)[C@H](CCC(N)=O)NC(=O)[C@@H](NC(=O)[C@H](Cc1ccccc1)NC(=O)[C@H](CCC(=O)O)NC(=O)[C@H](CCCNC(=N)N)NC(=O)[C@H](C)NC(=O)[C@H](CCCNC(=N)N)NC(=O)[C@H](CCCNC(=N)N)NC(=O)[C@H](CO)NC(=O)[C@H](CCC(=O)O)NC(=O)[C@H](CC(C)C)NC(=O)[C@H](Cc1ccc(O)cc1)NC(=O)[C@H](CCCCN)NC(=O)[C@H](CO)NC(=O)[C@H](CC(C)C)NC(=O)[C@H](CC(=O)O)NC(=O)[C@H](CO)NC(=O)[C@@H](NC(=O)[C@H](Cc1ccccc1)NC(=O)[C@@H](NC(=O)CNC(=O)[C@H](CCC(N)=O)NC(=O)C1(NC(=O)[C@@H](N)Cc2c[nH]cn2)CCC1)[C@@H](C)O)[C@@H](C)O)C(C)C)C(=O)N[C@@H](CCCCNC(=O)COCCOCCNC(=O)COCCOCCNC(=O)CC[C@H](NC(=O)CC[C@H](NC(=O)CCCCCCCCCCCCCCCCC(=O)O)C(=O)O)C(=O)O)C(=O)N[C@H](C(N)=O)[C@@H](C)O [Chem. 18, N^ε28-[2-[2-[2-[[2-[2-[2-[[(4S)-4-carboxy-4-[[(4S)-4-carboxy-4-(17-carboxyheptadecanoylamino)butanoyl]amino]butanoyl]amino]ethoxy]ethoxy]acetyl]amino]ethoxy]ethoxy]acetyl]-[Acb2,Leu10,Glu15,Arg20,Glu21,Ile27,Lys28]-Glucagon amide] (H-H[Ac4c]QGTFTSDLSKYLESRRAREFVQWLIK([AEEA-AEEA-γGlu-γGlu-C18 diacid])T-NH2) | 0.1 nM
2 | CC[C@H](C)[C@H](NC(=O)[C@H](CC(C)C)NC(=O)[C@H](Cc1c[nH]c2ccccc12)NC(=O)[C@H](CCC(N)=O)NC(=O)[C@@H](NC(=O)[C@H](Cc1ccccc1)NC(=O)[C@H](CCC(=O)O)NC(=O)[C@H](CCCNC(=N)N)NC(=O)[C@H](C)NC(=O)[C@H](CCCNC(=N)N)NC(=O)[C@H](CCCNC(=N)N)NC(=O)[C@H](CO)NC(=O)[C@H](CCC(=O)O)NC(=O)[C@H](CC(C)C)NC(=O)[C@H](Cc1ccc(O)cc1)NC(=O)[C@H](CCCNC(=N)N)NC(=O)[C@H](CO)NC(=O)[C@H](CC(C)C)NC(=O)[C@H](CC(=O)O)NC(=O)[C@H](CO)NC(=O)[C@@H](NC(=O)[C@H](Cc1ccccc1)NC(=O)[C@@H](NC(=O)CNC(=O)[C@H](CCC(N)=O)NC(=O)C1(NC(=O)[C@@H](N)Cc2c[nH]cn2)CCC1)[C@@H](C)O)[C@@H](C)O)C(C)C)C(=O)N[C@@H](CCCCNC(=O)CC[C@H](NC(=O)CC[C@H](NC(=O)COCCOCCNC(=O)COCCOCCNC(=O)CC[C@H](NC(=O)CC[C@H](NC(=O)CCCCCCCCCCCCCCCCC(=O)O)C(=O)O)C(=O)O)C(=O)O)C(=O)O)C(=O)N[C@H](C(N)=O)[C@@H](C)O [Chem. 17, N^ε28-[(4S)-4-carboxy-4-[[(4S)-4-carboxy-4-[[2-[2 [2-[[2-[2-[2-[[(4S)-4-carboxy-4-[[(4S)-4-carboxy-4-(17-carboxyheptadecanoylamino)butanoyl]amino]butanoyl]amino]ethoxy]ethoxy]acetyl]amino]ethoxy]ethoxy]acetyl]amino]butanoyl]amino]butanoyl]-[Acb2,Leu10,Arg12,Glu15,Arg20,Glu21,Ile27,Lys28]-Glucagon amide] (H-H[Ac4c]QGTFTSDLSRYLESRRAREFVQWLIK([γGlu-γGlu-AEEA-AEEA-γGlu-γGlu-C18 diacid])T-NH2) | 0.1 nM
3 | CC[C@H](C)[C@H](NC(=O)[C@H](CC(C)C)NC(=O)[C@H](Cc1c[nH]c2ccccc12)NC(=O)[C@H](CCCCNC(=O)COCCOCCNC(=O)COCCOCCNC(=O)CC[C@H](NC(=O)CC[C@H](NC(=O)CC[C@H](NC(=O)CCCCCCCCCCCCCCCCC(=O)O)C(=O)O)C(=O)O)C(=O)O)NC(=O)[C@@H](NC(=O)[C@H](Cc1ccccc1)NC(=O)[C@H](CCC(=O)O)NC(=O)[C@H](CCCNC(=N)N)NC(=O)[C@H](C)NC(=O)[C@H](CCCNC(=N)N)NC(=O)[C@H](CCCNC(=N)N)NC(=O)[C@H](C)NC(=O)[C@H](CC(=O)O)NC(=O)[C@H](CC(C)C)NC(=O)[C@H](Cc1ccc(O)cc1)NC(=O)[C@H](CCCCN)NC(=O)[C@H](CO)NC(=O)[C@H](Cc1ccc(O)cc1)NC(=O)[C@H](CC(=O)O)NC(=O)[C@H](CO)NC(=O)[C@@H](NC(=O)[C@H](Cc1ccccc1)NC(=O)[C@@H](NC(=O)CNC(=O)[C@H](CCC(N)=O)NC(=O)C(C)(C)NC(=O)[C@@H](N)Cc1c[nH]cn1)[C@@H](C)O)[C@@H](C)O)C(C)C)C(=O)N[C@@H](CO)C(=O)N[C@H](C(N)=O)[C@@H](C)O [Chem. 4, N^ε24-[2-[2-[2-[[2-[2-[2-[[(4S)-4-carboxy-4-[[(4S)-4-carboxy-4-[[(4S)-4-carboxy-4-(17-carboxyheptadecanoylamino)butanoyl]amino]butanoyl]amino]butanoyl]amino]ethoxy]ethoxy]acetyl]amino]ethoxy]ethoxy]acetyl]-[Aib2,Ala16,Arg20,Glu21,Lys24,Ile27,Ser28]-Glucagon amide] (H-H[Aib]QGTFTSDYSKYLDARRAREFVK([AEEA-AEEA-γGlu-γGlu-γGlu-C18 diacid])WLIST-NH2; N-terminus assumed) | 0.1 nM
4 | CC[C@H](C)[C@H](NC(=O)[C@H](CC(C)C)NC(=O)[C@H](Cc1c[nH]c2ccccc12)NC(=O)[C@H](C)NC(=O)[C@@H](NC(=O)[C@H](Cc1ccccc1)NC(=O)[C@H](CC(=O)O)NC(=O)[C@H](CCC(N)=O)NC(=O)[C@H](C)NC(=O)[C@H](CCCNC(=N)N)NC(=O)[C@H](CCCNC(=N)N)NC(=O)[C@H](CO)NC(=O)[C@H](CCC(=O)O)NC(=O)[C@H](CC(C)C)NC(=O)[C@H](Cc1ccc(O)cc1)NC(=O)[C@H](CCCCN)NC(=O)[C@H](CO)NC(=O)[C@H](Cc1ccc(O)cc1)NC(=O)[C@H](CC(=O)O)NC(=O)[C@H](CO)NC(=O)[C@@H](NC(=O)[C@H](Cc1ccccc1)NC(=O)[C@@H](NC(=O)CNC(=O)[C@H](CCC(N)=O)NC(=O)C(C)(C)NC(=O)[C@@H](N)Cc1c[nH]cn1)[C@@H](C)O)[C@@H](C)O)C(C)C)C(=O)N[C@@H](CCCCNC(=O)CC[C@H](NC(=O)CC[C@H](NC(=O)COCCOCCNC(=O)COCCOCCNC(=O)CC[C@H](NC(=O)CCCCCCCCCCCCCCCCC(=O)O)C(=O)O)C(=O)O)C(=O)O)C(=O)N[C@H](C(N)=O)[C@@H](C)O [Chem. 34, N^ε28-[(4S)-4-carboxy-4-[[(4S)-4-carboxy-4-[[2-[2-[2-[[2-[2-[2-[[(4S)-4-carboxy-4-(17-carboxyheptadecanoylamino)butanoyl]amino]ethoxy]ethoxy]acetyl]amino]ethoxy]ethoxy]acetyl]amino]butanoyl]amino]butanoyl]-[Aib2,Glu15,Ala24,Ile27,Lys28]-Glucagon amide] (H-H[Aib]QGTFTSDYSKYLESRRAQDFVAWLIK([γGlu-γGlu-AEEA-AEEA-γGlu-C18 diacid])T-NH2) | 2.2 nM

The remaining compounds from weak to strong by IC50, led by results:

Row | IC50 | Structure (SMILES)
5 | 0.4 nM | CC[C@H](C)[C@H](NC(=O)[C@H](CC(C)C)NC(=O)[C@H](Cc1c[nH]c2ccccc12)NC(=O)[C@H](C)NC(=O)[C@@H](NC(=O)[C@H](Cc1ccccc1)NC(=O)[C@H](CC(=O)O)NC(=O)[C@H](CCCNC(=N)N)NC(=O)[C@H](C)NC(=O)[C@H](CCCNC(=N)N)NC(=O)[C@H](CCCNC(=N)N)NC(=O)[C@H](CC(C)C)NC(=O)[C@H](CC(=O)O)NC(=O)[C@H](CC(C)C)NC(=O)[C@H](Cc1ccc(O)cc1)NC(=O)[C@H](CCCCN)NC(=O)[C@H](CO)NC(=O)[C@H](CC(C)C)NC(=O)[C@H](CC(=O)O)NC(=O)[C@H](CO)NC(=O)[C@@H](NC(=O)[C@H](Cc1ccccc1)NC(=O)[C@@H](NC(=O)CNC(=O)[C@H](CCC(N)=O)NC(=O)C(C)(C)NC(=O)[C@@H](N)Cc1c[nH]cn1)[C@@H](C)O)[C@@H](C)O)C(C)C)C(=O)N[C@@H](CC(N)=O)C(=O)N[C@@H](CCCCNC(=O)CC[C@H](NC(=O)CC[C@H](NC(=O)COCCOCCNC(=O)COCCOCCNC(=O)CC[C@H](NC(=O)CCCCCCCCCCCCCCCCC(=O)O)C(=O)O)C(=O)O)C(=O)O)C(N)=O [Chem. 24, N^ε29-[(4S)-4-carboxy-4-[[(4S)-4-carboxy-4-[[2-[2-[2-[[2-[2-[2-[[(4S)-4-carboxy-4-(17-carboxyheptadecanoylamino)butanoyl]amino]ethoxy]ethoxy]acetyl]amino]ethoxy]ethoxy]acetyl]amino]butanoyl]amino]butanoyl]-[Aib2,Leu10,Leu16,Arg20,Ala24,Ile27,Lys29]-Glucagon amide] (H-H[Aib]QGTFTSDLSKYLDLRRARDFVAWLINK([γGlu-γGlu-AEEA-AEEA-γGlu-C18 diacid])-NH2; N-terminus assumed)
6 | 0.1 nM | CC[C@H](C)[C@H](NC(=O)[C@H](CC(C)C)NC(=O)[C@H](Cc1c[nH]c2ccccc12)NC(=O)[C@H](CCC(N)=O)NC(=O)[C@@H](NC(=O)[C@H](Cc1ccccc1)NC(=O)[C@H](CC(=O)O)NC(=O)[C@H](CCCNC(=N)N)NC(=O)[C@H](C)NC(=O)[C@H](CCCNC(=N)N)NC(=O)[C@H](CCCNC(=N)N)NC(=O)[C@H](C)NC(=O)[C@H](CC(=O)O)NC(=O)[C@H](CC(C)C)NC(=O)[C@H](Cc1ccc(O)cc1)NC(=O)[C@H](CCCCN)NC(=O)[C@H](CO)NC(=O)[C@H](CC(C)C)NC(=O)[C@H](CC(=O)O)NC(=O)[C@H](CO)NC(=O)[C@@H](NC(=O)[C@H](Cc1ccccc1)NC(=O)[C@@H](NC(=O)CNC(=O)[C@H](CCC(N)=O)NC(=O)C(C)(C)NC(=O)[C@@H](N)Cc1c[nH]cn1)[C@@H](C)O)[C@@H](C)O)C(C)C)C(=O)N[C@@H](CC(N)=O)C(=O)N[C@@H](CCCCNC(=O)CC[C@H](NC(=O)CC[C@H](NC(=O)COCCOCCNC(=O)COCCOCCNC(=O)CC[C@H](NC(=O)CCCCCCCCCCCCCCCCC(=O)O)C(=O)O)C(=O)O)C(=O)O)C(N)=O [Chem. 20, N^ε29-[(4S)-4-carboxy-4-[[(4S)-4-carboxy-4-[[2-[2-[2-[[2-[2-[2-[[(4S)-4-carboxy-4-(17-carboxyheptadecanoylamino)butanoyl]amino]ethoxy]ethoxy]acetyl]amino]ethoxy]ethoxy]acetyl]amino]butanoyl]amino]butanoyl]-[Aib2,Leu10,Ala16,Arg20,Ile27,Lys29]-Glucagon amide] (H-H[Aib]QGTFTSDLSKYLDARRARDFVQWLINK([γGlu-γGlu-AEEA-AEEA-γGlu-C18 diacid])-NH2; N-terminus assumed)
